Structures are written as SMILES. Where “and” joins values, the source holds several entries; their conditions need not be identical. Equal values may be shown once.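 Compound exposure: 48 hours, 5 concentrations, 96-well plates. Abbreviation: GI50, concentration required for 50% inhibition of growth. TGI: concentration producing complete growth inhibition.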

Among the test systems are ACHN renal; CCRF-CEM leukemia; K-562 leukemia; KM12 colon; NCI-H23 lung; RXF 393 renal; SF-268 CNS; SF-539 CNS; U251 CNS; UACC-62 melanoma.
What all share (experiment): DTP human tumour cell line panel, 48 h

For orientation: GI50 means the concentration at which growth is held to half of that of the control. A word on the TGI: it is the concentration at which net growth stops. In the case of `CC(=O)O/N=C1/C(c2c(O)[nH]c3cc(Br)ccc23)=Nc2ccccc21`, the GI50 in the assay with ACHN renal is 0.707 µM; in the assay with CCRF-CEM leukemia, 1.38 µM; in the assay on K-562 leukemia, 0.553 µM; with KM12 colon, 0.398 µM; in the assay with NCI-H23 lung it was 1.63 µM; in the assay with RXF 393 renal, 0.385 µM. Besides, the GI50 was 1.62 µM with SF-268 CNS, 0.818 µM in the assay on SF-539 CNS, 1.72 µM in the assay with U251 CNS and 1.17 µM in the assay on UACC-62 melanoma. The TGI with ACHN renal worked out at 2.18 µM; in the assay on CCRF-CEM leukemia it was 5.37 µM; in the assay on K-562 leukemia it was 3.3 µM; with KM12 colon, 1.91 µM; with NCI-H23 lung, 3.62 µM; in the assay on RXF 393 renal it was 1.61 µM. In addition, the TGI worked out at 3.78 µM in the assay on SF-268 CNS, 3.13 µM in the assay with SF-539 CNS, 5.63 µM with U251 CNS and 2.75 µM in the assay on UACC-62 melanoma.

On to `O=C(CCl)N1c2ccccc2Sc2ccc3ccccc3c21`, for which the GI50 was 0.801 µM with ACHN renal; 0.22 µM in the assay with CCRF-CEM leukemia; 0.659 µM in the assay with K-562 leukemia; 1.82 µM with KM12 colon; 1.18 µM in the assay on NCI-H23 lung; 1.49 µM in the assay on RXF 393 renal. Moreover, the GI50 in the assay on SF-268 CNS is 1.64 µM; in the assay with SF-539 CNS it was 1.72 µM; in the assay on U251 CNS it was 1.55 µM; in the assay on UACC-62 melanoma, 1.53 µM. The TGI in the assay on ACHN renal is 2.01 µM; in the assay with CCRF-CEM leukemia it was 0.533 µM; with K-562 leukemia it was 3.49 µM; in the assay on KM12 colon, 3.35 µM; in the assay on NCI-H23 lung, 2.54 µM; with RXF 393 renal it was 2.83 µM. Also, the TGI in the assay with SF-268 CNS was found to be 3.16 µM; with SF-539 CNS, 3.15 µM; in the assay on U251 CNS, 2.95 µM; with UACC-62 melanoma it was 2.88 µM.

For `CCCCCCCCCCCCSC(=N)N`, the GI50 is 3.89 µM with ACHN renal; 8.4 µM with CCRF-CEM leukemia; 2.01 µM in the assay on K-562 leukemia; 3.33 µM in the assay on KM12 colon; 16.3 µM in the assay on NCI-H23 lung; 6.64 µM in the assay with RXF 393 renal. In addition, the GI50 in the assay with SF-268 CNS is 7.82 µM; in the assay on SF-539 CNS, 15.2 µM; in the assay with U251 CNS, 2.64 µM; in the assay with UACC-62 melanoma, 15.7 µM. Also, the TGI with ACHN renal worked out at 15.9 µM; in the assay with CCRF-CEM leukemia, 26.1 µM; in the assay with K-562 leukemia, 4.64 µM; in the assay on KM12 colon it was 11.3 µM; with NCI-H23 lung, 32.8 µM; in the assay on RXF 393 renal it was 26.6 µM. Further, the TGI is 25.8 µM in the assay on SF-268 CNS, 32 µM in the assay on SF-539 CNS, 8.74 µM in the assay on U251 CNS and 31 µM with UACC-62 melanoma.

Regarding `COc1cc2c[n+](C)c3c4ccccc4ccc3c2cc1OC` (tested in a mixture with another compound), the TGI in the assay with ACHN renal was > 100 µM; with CCRF-CEM leukemia, > 70.6 µM; in the assay on KM12 colon it was 2.5 µM and 13.2 µM; with NCI-H23 lung, 31.7 µM; in the assay on RXF 393 renal, 54.4 µM; in the assay on SF-268 CNS, 2.86 µM and 10.4 µM. In addition, the TGI is 5.65 µM and 25 µM in the assay on SF-539 CNS; 6.36 µM and 16.9 µM in the assay with U251 CNS; 20.3 µM in the assay on UACC-62 melanoma. For the same molecule, the GI50 was 2.08 µM in the assay with CCRF-CEM leukemia; 2.29 µM in the assay on K-562 leukemia; 0.544 µM with KM12 colon; 1.54 µM in the assay on SF-539 CNS; 1.31 µM in the assay with U251 CNS; 3.08 µM with UACC-62 melanoma.

As to `C#Cc1c(C(N)=O)ncn1C1OC(COP(=O)(OCc2ccc([N+](=O)[O-])o2)N(C)CCCCCl)C(O)C1O` (centres undefined), the GI50 in the assay on ACHN renal is 45 µM; with CCRF-CEM leukemia, 21.9 µM; in the assay on K-562 leukemia it was 74.2 µM; in the assay with KM12 colon, 42.7 µM; in the assay with NCI-H23 lung it was 5.99 µM; in the assay on RXF 393 renal it was > 100 µM. The GI50 is 45.1 µM with SF-268 CNS, 19.7 µM with SF-539 CNS, 53.9 µM in the assay with U251 CNS and > 100 µM with UACC-62 melanoma. Besides, the TGI is > 100 µM in the assay on ACHN renal; > 100 µM in the assay with CCRF-CEM leukemia; > 100 µM with K-562 leukemia; > 100 µM in the assay on KM12 colon; 73.6 µM in the assay on NCI-H23 lung; > 100 µM with RXF 393 renal. The TGI in the assay with SF-268 CNS, with SF-539 CNS, in the assay on U251 CNS and with UACC-62 melanoma was > 100 µM each time.

As for `COc1ccc2c(c1)C(=O)/C(=C/c1ncc([N+](=O)[O-])n1C)O2`, the GI50 with ACHN renal was 0.204 µM; in the assay on CCRF-CEM leukemia, 0.141 µM; in the assay with K-562 leukemia, 0.245 µM; in the assay on KM12 colon, 0.279 µM; with NCI-H23 lung, 1.02 µM; in the assay on RXF 393 renal it was 1.01 µM. The GI50 is 0.421 µM in the assay on SF-268 CNS, 1.55 µM in the assay on SF-539 CNS, 0.772 µM with U251 CNS and 1.29 µM with UACC-62 melanoma. Further, the TGI came out at 0.596 µM with ACHN renal; 0.622 µM in the assay with CCRF-CEM leukemia; 0.973 µM in the assay with KM12 colon; 4.76 µM in the assay on NCI-H23 lung; 3.03 µM with RXF 393 renal; 2.1 µM with SF-268 CNS. For the same molecule, the TGI in the assay with SF-539 CNS came out at 3.41 µM; in the assay on U251 CNS it was 2.84 µM; with UACC-62 melanoma it was 3.12 µM.

Take `CCSC1=C(C)N(C=NC(C)(C)C)CC1`: the TGI in the assay with ACHN renal, in the assay with CCRF-CEM leukemia, with K-562 leukemia, in the assay on KM12 colon, in the assay on NCI-H23 lung and with RXF 393 renal was > 100 µM in each case. For the same molecule, the TGI in the assay with SF-268 CNS, in the assay with SF-539 CNS, in the assay with U251 CNS and with UACC-62 melanoma was > 100 µM in each case.

For `O=C1c2c(n(Cc3ccccc3)c(=O)n2Cc2ccccc2)C(=O)N1Cc1ccccc1`, the concentration for total growth inhibition (TGI) in the assay with ACHN renal, in the assay with CCRF-CEM leukemia, in the assay with K-562 leukemia, in the assay on KM12 colon, in the assay with NCI-H23 lung and in the assay on RXF 393 renal was > 100 µM each time. Also, the TGI in the assay with SF-268 CNS, in the assay on SF-539 CNS, in the assay with U251 CNS and in the assay with UACC-62 melanoma was > 100 µM each time.
